USRE48097E1, “Cephem compounds, their production and use” (priority 2015, dated 2020)
≈ marks a conversion by molar mass, not a printed value. Where two headings read alike, the source gives them in different places.

Legend:
Type in all cases: cell-based
K. pneumoniae 4104 = assay: MIC against K. pneumoniae 4104; settings: K. pneumoniae 4104, KPC-3, TEM-1
Experimental: (§1) As shown, the foregoing composition was tested for minimum inhibitory concentration (MIC, μg/mL) against bacteria listed in Tables 2-3.

K. pneumoniae 4105 = assay: MIC against K. pneumoniae 4105; settings: K. pneumoniae 4105, KPC-3, TEM-1, SHV-11
Experimental: as §1

K. pneumoniae 4106 = assay: MIC against K. pneumoniae 4106; settings: K. pneumoniae 4106, KPC-3, TEM-1, SHV-12, SHV-141
Experimental: as §1

K. pneumoniae 4107 = assay: MIC against K. pneumoniae 4107; settings: K. pneumoniae 4107, KPC-2, TEM-1, SHV-11
Experimental: as §1

K. pneumoniae 4108 = assay: MIC against K. pneumoniae 4108; settings: K. pneumoniae 4108, KPC-3, TEM-166, SHV-12, SHV-141
Experimental: as §1

K. pneumoniae 2689 = assay: MIC against K. pneumoniae 2689; settings: K. pneumoniae 2689, KPC-2
Experimental: as §1

E. cloacae 2689 = assay: MIC against E. cloacae 2689; settings: Table 3, E. cloacae 2689, KPC-2
Experimental: as §1

E. cloacae 2705 = assay: MIC against E. cloacae 2705; settings: Table 3, E. cloacae 2705, VIM-1, KPC-3type
Experimental: as §1

E. cloacae 2706 = assay: MIC against E. cloacae 2706; settings: Table 3, E. cloacae 2706, VIM-1, KPC-3
Experimental: as §1

E. cloacae 2709 = assay: MIC against E. cloacae 2709; settings: Table 3, E. cloacae 2709, KPC-3, VIM-1
Experimental: as §1

E. cloacae 2710 = assay: MIC against E. cloacae 2710; settings: Table 3, E. cloacae 2710, KPC-3, VIM-1
Experimental: as §1

E. coli 2666 = assay: MIC against E. coli 2666; settings: Table 3, E. coli 2666, KPC-2
Experimental: as §1

E. coli 4103 = assay: MIC against E. coli 4103; settings: Table 3, E. coli 4103, KPC-2, TEM-1, CMY-type
Experimental: as §1

K. pneumoniae 2690 = assay: MIC against K. pneumoniae 2690; settings: Table 3, K. pneumoniae 2690, KPC-2
Experimental: as §1

K. pneumoniae 2711 = assay: MIC against K. pneumoniae 2711; settings: Table 3, K. pneumoniae 2711, KPC-3, VIM-1
Experimental: as §1

K. pneumoniae 2712 = assay: MIC against K. pneumoniae 2712; settings: Table 3, K. pneumoniae 2712, KPC-3, VIM-1
Experimental: as §1

K. pneumoniae 2713 = assay: MIC against K. pneumoniae 2713; settings: Table 3, K. pneumoniae 2713, KPC-3, VIM-1
Experimental: as §1

K. pneumoniae 4088 = assay: MIC against K. pneumoniae 4088; settings: Table 3, K. pneumoniae 4088, KPC-3
Experimental: as §1

P. aeruginosa 2686 = assay: MIC against P. aeruginosa 2686; settings: Table 3, P. aeruginosa 2686, KPC-2
Experimental: as §1

[1] = Klebsiella pneumoniae, 4104, Table 3, alone, read-out: MIC
[2] = Table 3, in combination with NXL-104
[3] = Klebsiella pneumoniae, 4105, Table 3, alone, read-out: MIC
[4] = Klebsiella pneumoniae, 4106, Table 3, alone, read-out: MIC
[5] = Klebsiella pneumoniae, 4107, Table 3, alone, read-out: MIC
[6] = Klebsiella pneumoniae, 4108, Table 3, alone, read-out: MIC
[7] = Klebsiella pneumoniae, 2689, Table 3, alone, read-out: MIC
[8] = Enterobacter cloacae, alone, read-out: MIC
[9] = Escherichia coli, alone, read-out: MIC
[10] = Klebsiella pneumoniae, alone, read-out: MIC
[11] = Pseudomonas aeruginosa, alone, read-out: MIC

| MIC (K. pneumoniae 4104; [1]) | MIC (K. pneumoniae 4104; [2]) | MIC (K. pneumoniae 4105; [3]) | MIC (K. pneumoniae 4105; [2]) | MIC (K. pneumoniae 4106; [4]) | MIC (K. pneumoniae 4106; [2]) | MIC (K. pneumoniae 4107; [5]) | MIC (K. pneumoniae 4107; [2]) | MIC (K. pneumoniae 4108; [6]) | MIC (K. pneumoniae 4108; [2]) | MIC (K. pneumoniae 2689; [7]) | MIC (K. pneumoniae 2689; [2]) | MIC (E. cloacae 2689; [8]) | MIC (E. cloacae 2689; in combination with NXL-104) | MIC (E. cloacae 2705; [8]) | MIC (E. cloacae 2705; in combination with NXL-104) | MIC (E. cloacae 2706; [8]) | MIC (E. cloacae 2706; in combination with NXL-104) | MIC (E. cloacae 2709; [8]) | MIC (E. cloacae 2709; in combination with NXL-104) | Structure (SMILES) | further results |
| --- | --- | --- | --- | --- | --- | --- | --- | --- | --- | --- | --- | --- | --- | --- | --- | --- | --- | --- | --- | --- | --- |
| 16 µg/mL (≈ 22.6 µM) | 1 µg/mL | > 32 µg/mL | 2 µg/mL | 32 µg/mL (≈ 45.3 µM) | 4 µg/mL | 32 µg/mL (≈ 45.3 µM) | 2 µg/mL | > 32 µg/mL | 2 µg/mL | 16 µg/mL (≈ 22.6 µM) | 1 µg/mL | 4 µg/mL (≈ 5.66 µM) | 0.5 µg/mL | > 32 µg/mL | >32 µg/mL | > 32 µg/mL | 32 µg/mL | 8 µg/mL (≈ 11.3 µM) | 4 µg/mL | CC(C)(O/N=C(\C(=O)N[C@@H]1C(=O)N2C(C(=O)[O-])=C(C[n+]3ccc4n(Cc5ccc(C(=N)N)cc5)ccn43)CS[C@H]12)c1csc(N)n1)C(=O)O [Example 4, (6R,7R)-7-{[(2Z)-2-(2-Amino-1,3-thiazol-4-yl)-2-{[(2-carboxypropan-2-yl)oxy]imino}acetyl]amino}-3-{[1-(4-carbamimidoylbenzyl)-1H-imidazo[1,2-b]pyrazol-5-ium-5-yl]methyl}-8-oxo-5-thia-1-azabicyclo[4.2.0]oct-2-ene-2-carboxylate] | MIC (E. cloacae 2710; [8]): > 32 µg/mL; MIC (E. cloacae 2710; in combination with NXL-104): >32 µg/mL; MIC (E. coli 2666; [9]): 32 µg/mL (≈ 45.3 µM); MIC (E. coli 2666; in combination with NXL-104): 2 µg/mL; MIC (E. coli 4103; [9]): > 32 µg/mL; MIC (E. coli 4103; in combination with NXL-104): 8 µg/mL; MIC (K. pneumoniae 2690; [10]): 16 µg/mL (≈ 22.6 µM); MIC (K. pneumoniae 2690; in combination with NXL-104): 2 µg/mL; MIC (K. pneumoniae 2711; [10]): 8 µg/mL (≈ 11.3 µM); MIC (K. pneumoniae 2711; in combination with NXL-104): 1 µg/mL; MIC (K. pneumoniae 2712; [10]): > 32 µg/mL; MIC (K. pneumoniae 2712; in combination with NXL-104): 4 µg/mL; MIC (K. pneumoniae 2713; [10]): > 32 µg/mL; MIC (K. pneumoniae 2713; in combination with NXL-104): 2 µg/mL; MIC (K. pneumoniae 4088; [10]): > 32 µg/mL; MIC (K. pneumoniae 4088; in combination with NXL-104): 4 µg/mL; MIC (P. aeruginosa 2686; [11]): 32 µg/mL (≈ 45.3 µM); MIC (P. aeruginosa 2686; in combination with NXL-104): 8 µg/mL |
| 16 µg/mL (≈ 21 µM) | 1 µg/mL | 32 µg/mL (≈ 42 µM) | 2 µg/mL | 32 µg/mL (≈ 42 µM) | 2 µg/mL | 16 µg/mL (≈ 21 µM) | 1 µg/mL | 32 µg/mL (≈ 42 µM) | 1 µg/mL | 16 µg/mL (≈ 21 µM) | 1 µg/mL | 32 µg/mL (≈ 42 µM) | 1 µg/mL | > 32 µg/mL | >32 µg/mL | > 32 µg/mL | >32 µg/mL | 32 µg/mL (≈ 42 µM) | 4 µg/mL | CO/N=C(\C(=O)N[C@@H]1C(=O)N2C(C(=O)[O-])=C(C[n+]3ccc4c(ccn4Cc4cc(C(=N)Nc5ccccc5)cs4)c3)CS[C@H]12)c1nc(N)sc1Cl [Example 12, (6R,7R)-7-{[(2Z)-2-(2-Amino-5-chloro-1,3-thiazol-4-yl)-2-(methoxyimino)acetyl]amino}-8-oxo-3-[(1-{[4-(N-phenylcarbamimidoyl)thiophen-2-yl]methyl}-1H-pyrrolo[3,2-c]pyridin-5-ium-5-yl)methyl]-5-thia-1-azabicyclo[4.2.0]oct-2-ene-2-carboxylate] | MIC (E. cloacae 2710; [8]): > 32 µg/mL; MIC (E. cloacae 2710; in combination with NXL-104): >32 µg/mL; MIC (E. coli 2666; [9]): 16 µg/mL (≈ 21 µM); MIC (E. coli 2666; in combination with NXL-104): 1 µg/mL; MIC (E. coli 4103; [9]): > 32 µg/mL; MIC (E. coli 4103; in combination with NXL-104): 4 µg/mL; MIC (K. pneumoniae 2690; [10]): 8 µg/mL (≈ 10.5 µM); MIC (K. pneumoniae 2690; in combination with NXL-104): 1 µg/mL; MIC (K. pneumoniae 2711; [10]): 4 µg/mL (≈ 5.25 µM); MIC (K. pneumoniae 2711; in combination with NXL-104): 0.5 µg/mL; MIC (K. pneumoniae 2712; [10]): > 32 µg/mL; MIC (K. pneumoniae 2712; in combination with NXL-104): 4 µg/mL; MIC (K. pneumoniae 2713; [10]): > 32 µg/mL; MIC (K. pneumoniae 2713; in combination with NXL-104): 2 µg/mL; MIC (K. pneumoniae 4088; [10]): > 32 µg/mL; MIC (K. pneumoniae 4088; in combination with NXL-104): 2 µg/mL; MIC (P. aeruginosa 2686; [11]): 32 µg/mL (≈ 42 µM); MIC (P. aeruginosa 2686; in combination with NXL-104): 32 µg/mL |
| 32 µg/mL (≈ 41.6 µM) | 1 µg/mL | > 32 µg/mL | 2 µg/mL | > 32 µg/mL | 4 µg/mL | 16 µg/mL (≈ 20.8 µM) | 2 µg/mL | > 32 µg/mL | 2 µg/mL | 32 µg/mL (≈ 41.6 µM) | 1 µg/mL | 16 µg/mL (≈ 20.8 µM) | 0.5 µg/mL | > 32 µg/mL | >32 µg/mL | > 32 µg/mL | 32 µg/mL | 32 µg/mL (≈ 41.6 µM) | 4 µg/mL | CO/N=C(\C(=O)N[C@@H]1C(=O)N2C(C(=O)[O-])=C(C[n+]3ccc4c(ccn4Cc4cc(C(=N)Nc5nccs5)cs4)c3)CS[C@H]12)c1nc(N)sc1Cl [Example 14, (6R,7R)-7-{[(2Z)-2-(2-Amino-5-chloro-1,3-thiazol-4-yl)-2-(methoxyimino)acetyl]amino}-8-oxo-3-{[1-({4-[N-(1,3-thiazol-2-yl)carbamimidoyl]thiophen-2-yl}methyl)-1H-pyrrolo[3,2-c]pyridin-5-ium-5-yl]methyl}-5-thia-1-azabicyclo[4.2.0]oct-2-ene-2-carboxylate] | MIC (E. cloacae 2710; [8]): > 32 µg/mL; MIC (E. cloacae 2710; in combination with NXL-104): >32 µg/mL; MIC (E. coli 2666; [9]): 32 µg/mL (≈ 41.6 µM); MIC (E. coli 2666; in combination with NXL-104): 1 µg/mL; MIC (E. coli 4103; [9]): > 32 µg/mL; MIC (E. coli 4103; in combination with NXL-104): 8 µg/mL; MIC (K. pneumoniae 2690; [10]): 32 µg/mL (≈ 41.6 µM); MIC (K. pneumoniae 2690; in combination with NXL-104): 1 µg/mL; MIC (K. pneumoniae 2711; [10]): 4 µg/mL (≈ 5.2 µM); MIC (K. pneumoniae 2711; in combination with NXL-104): 0.5 µg/mL; MIC (K. pneumoniae 2712; [10]): > 32 µg/mL; MIC (K. pneumoniae 2712; in combination with NXL-104): 4 µg/mL; MIC (K. pneumoniae 2713; [10]): > 32 µg/mL; MIC (K. pneumoniae 2713; in combination with NXL-104): 2 µg/mL; MIC (K. pneumoniae 4088; [10]): > 32 µg/mL; MIC (K. pneumoniae 4088; in combination with NXL-104): 4 µg/mL; MIC (P. aeruginosa 2686; [11]): > 32 µg/mL; MIC (P. aeruginosa 2686; in combination with NXL-104): 16 µg/mL |
